Reference: patent US8765422B2, “D4 desaturases and D5 elongases” (priority 2007, dated 2014)
Values joined by “and” are separate entries in the source; they are usually repeats but may differ in a detail not shown here. Equal entries are not always repeated.

Columns and labels:
[1] = system: Δ5-elongase from Thraustochytrium ONC-T18; test: Δ5-elongase (clone pYElo) expressed in Saccharomyces cerevisiae INVSc1, fed free fatty acid substrate, percent conversion by FAME GC; assay type: cell-based, Thraustochytrium sp. ONC-T18; conditions: pYElo in yeast
Protocol: The activity and specificity of the D4-desaturase and D5 elongase were determined using the yeast expression system. The transformed yeast was grown in SC-U medium containing 2% glucose, 1% Tergitol NP-40 for 48 hrs, 150 RPM at 30° C. A substrate medium was prepared containing SC-U, 2% galactose, 1% raffinose, 1% Tergitol NP-40 and 500 μM specific free fatty acid. The transformed yeast culture was inoculated into 100 ml substrate medium at an OD600 of 0.5 and cultures incubated at 20° C. for 5 days. The biomass was recovered by centrifugation at 2000 RPM for 5 min, washed once with 100 mM phosphate buffer (pH 7.0), then freeze dried. Fatty acid methyl ester gas chromatography was subsequently carried out to determine the efficiency of fatty acid desaturation and elongation. The percent conversion of the substrate was determined by calculating (product)/(substrate+product)*100. […]
The negative control strain was INVSc1 containing the unaltered pYES2 vector, and these were grown simultaneously. […] The FAMEs were resuspended in iso-octane and analysed by GC-FID. The percent conversion was calculated by dividing the product produced by the sum of (the product produced+the substrate added) and then multiplying by 100. […]

[2] = system: Δ4-desaturase from Thraustochytrium ONC-T18; test: Δ4-desaturase (clone pYDes) expressed in Saccharomyces cerevisiae INVSc1, fed free fatty acid substrate, percent conversion by FAME GC; assay type: cell-based, Thraustochytrium sp. ONC-T18; conditions: for % conversion average, vector pYDes: pYDes in INVSc1, 500 μM substrate, GC-FID of FAMEs; for % conversion average, vector pYDes / % conversion With 0.01% ferric citrate: 96 hours at 20° C.; for increase With 0.01% ferric citrate: conversion with 0.01% ferric citrate versus without; for % conversion average (substrate to product) / % conversion With 0.01% ferric citrate: pYDes in yeast; for % conversion average (substrate to product): 500 μM free fatty acid substrate, 20° C., (product)/(substrate+product)*100; for % conversion With 0.01% ferric citrate: 500 μM substrate
Protocol: The activity and specificity of the D4-desaturase and D5 elongase were determined using the yeast expression system. The transformed yeast was grown in SC-U medium containing 2% glucose, 1% Tergitol NP-40 for 48 hrs, 150 RPM at 30° C. A substrate medium was prepared containing SC-U, 2% galactose, 1% raffinose, 1% Tergitol NP-40 and 500 μM specific free fatty acid. The transformed yeast culture was inoculated into 100 ml substrate medium at an OD600 of 0.5 and cultures incubated at 20° C. for 5 days. The biomass was recovered by centrifugation at 2000 RPM for 5 min, washed once with 100 mM phosphate buffer (pH 7.0), then freeze dried. Fatty acid methyl ester gas chromatography was subsequently carried out to determine the efficiency of fatty acid desaturation and elongation. The percent conversion of the substrate was determined by calculating (product)/(substrate+product)*100.
Clone pYDes, which consisted of the full length Δ4-desaturase cloned into pYES2 (Invitrogen, Carlsbad, Calif.), and clone pYElo, which consisted of the full-length Δ5-elongase gene in pYES2, were transformed into competent Saccharomyces cerevisiae INVSc1. Yeast transformation was carried out using the S. c. EasyComp Transformation kit (Invitrogen, Carlsbad, Calif.) according to conditions specified by the manufacturer. Transformants were selected for uracil auxotrophy on media lacking uracil (SC-Ura). To detect the specific desaturase activity of these clones, transformants were grown in the presence of 500 μM specific fatty acid substrates as listed below: A) Docosapentaenoic acid (22:5n-3) (conversion to docosahexaenoic acid would indicate Δ4-desaturase activity), B) Docosatetraenoic acid (22:4n-6) (conversion to docosapentaenoic acid (22:5n-6) would indicate Δ4-desaturase activity), C) Dihomo-gamma-linolenic acid (20:3n-6) (conversion to arachidonic acid (20:4n-6) would indicate Δ5-desaturase activity), D) Eicosapentaenoic acid (20:5n-3) (conversion to docosapentaenoic acid (22:5n-3) would indicate Δ5-elongase activity), E) Arachidonic acid (20:4n-6) (conversion to docosatetraenoic acid (22:4n-6) would indicate Δ5-elongase activity)
The negative control strain was INVSc1 containing the unaltered pYES2 vector, and these were grown simultaneously. The cultures were vigorously agitated (150 rpm) and grown for 96 hours at 20° C. in the presence of 500 μM (final concentration) of the various substrates. The cells were pelleted and washed in 100 mM phosphate buffer, pH 7.0, cell pellets were freeze dried. The lipids were then extracted and derivitized to fatty acid methyl esters (FAME) for gas chromatography analysis (GC). Transesterification and extraction was done using 100 mg freeze dried cells, with C19:0 as internal standard, added transesterification reaction mix (methanol: hydrochloric acid: chloroform, 10:1:1) mixed and heated at 90° C. for 2 hours, then allowed to cool at room temperature. FAMEs were extracted by adding 1 ml water, and 2 ml hexane: chloroform (4:1), and allow organic and aqueous phases to separate. The organic layer was extracted and treated with 0.5 g of anhydrous sodium sulfate to remove particulates and residual water. The organic solvents were evaporated under a stream of argon. The FAMEs were resuspended in iso-octane and analysed by GC-FID. The percent conversion was calculated by dividing the product produced by the sum of (the product produced+the substrate added) and then multiplying by 100.
Clone pYDes, which consisted of the full length Δ4-desaturase cloned into pYES2 (Invitrogen, Carlsbad, Calif.), was transformed into competent Saccharomyces cerevisiae INVSc1. The negative control strain was INVSc1 containing the unaltered pYES2 vector, and these were grown simultaneously.

SMILES	conversion of substrate by pYElo [1]	% conversion average, vector pYDes [2] [%]	increase With 0.01% ferric citrate [2] [fold]	% conversion average (substrate to product) [2]	% conversion With 0.01% ferric citrate [2] [%]	other results
CCCCC/C=C\C/C=C\C/C=C\C/C=C\CCCC(=O)O [ARA, Arachidonic acid (20:4n-6)]	minimal conversion					
CCCCC/C=C\C/C=C\C/C=C\CCCCCCC(=O)O [DGLA, Dihomo-gamma-linolenic acid (20:3n-6)]		0.87				
CC/C=C\C/C=C\C/C=C\C/C=C\C/C=C\CCCCCC(=O)O [DPA, Docosapentaenoic acid (22:5n-3)]		14	2.75	14.04%	38.70	% conversion average, vector pYDes ([2]; listed as C22:5 n-3): 14.04%; % conversion average (substrate to product) ([2]; listed as DPA n-3): 14%; DPA to DHA conversion on addition of ferric citrate to the media ([2]; pYDes, trace metal ferric citrate added): increase
CCCCC/C=C\C/C=C\C/C=C\C/C=C\CCCCCC(=O)O [DTA, Docosatetraenoic acid (22:4n-6)]		14	2.43	14% and 13.76%	33.43	% conversion average, vector pYDes ([2]; listed as C22:4 n-6): 13.76%
CC/C=C\C/C=C\C/C=C\C/C=C\C/C=C\CCCC(=O)O [EPA, Eicosapentaenoic acid (20:5n-3)]	minimal conversion					
